Article PMC6039382 (Journal of Cardiovascular Pharmacology, 2018)
Positions count from the first letter of the chain named. “Also recorded” adds a separate entry of the source.

Columns and labels:
PPAR-α = conditions: cited from earlier work
human PPAR-γ = target: T1, human PPAR-γ (Homo sapiens, UniProt P37231); assay: PPAR-γ agonist transactivation assay, Gal4-LBD luciferase reporter cells
T1 sequence (P37231 238-503 limits assumed): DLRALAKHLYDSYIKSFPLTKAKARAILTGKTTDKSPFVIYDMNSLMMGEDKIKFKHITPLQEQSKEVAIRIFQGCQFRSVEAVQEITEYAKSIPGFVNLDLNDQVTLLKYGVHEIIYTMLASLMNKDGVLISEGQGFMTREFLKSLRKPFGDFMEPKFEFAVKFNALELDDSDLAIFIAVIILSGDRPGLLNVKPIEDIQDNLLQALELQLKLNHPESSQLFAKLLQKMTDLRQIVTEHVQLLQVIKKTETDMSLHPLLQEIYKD

rat PPAR-α = target: T2, rat PPAR-α (Rattus norvegicus, UniProt P37230); assay: PPAR-α agonist transactivation assay, Gal4-LBD luciferase reporter cells; type: cell-based; conditions: gemcabene up to 300 μM
T2 sequence (P37230 239-466 limits assumed): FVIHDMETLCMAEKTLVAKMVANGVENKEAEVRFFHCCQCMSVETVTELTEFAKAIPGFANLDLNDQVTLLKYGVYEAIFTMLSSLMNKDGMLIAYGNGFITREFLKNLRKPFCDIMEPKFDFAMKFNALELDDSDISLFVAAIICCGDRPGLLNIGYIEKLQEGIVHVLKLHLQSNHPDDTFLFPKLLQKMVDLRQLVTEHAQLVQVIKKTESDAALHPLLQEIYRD

mouse PPAR-α = target: T3, mouse PPAR-α (Mus musculus, UniProt P23204); assay: as above; type: cell-based; conditions: gemcabene up to 300 μM
T3 sequence (P23204 239-466 limits assumed): T2 sequence (P37230 239-466 limits assumed) with N27D

human PPAR-α = target: T4, human PPAR-α (Homo sapiens, UniProt Q07869); assay: as above; type: cell-based
T4 sequence (Q07869 239-466 limits assumed): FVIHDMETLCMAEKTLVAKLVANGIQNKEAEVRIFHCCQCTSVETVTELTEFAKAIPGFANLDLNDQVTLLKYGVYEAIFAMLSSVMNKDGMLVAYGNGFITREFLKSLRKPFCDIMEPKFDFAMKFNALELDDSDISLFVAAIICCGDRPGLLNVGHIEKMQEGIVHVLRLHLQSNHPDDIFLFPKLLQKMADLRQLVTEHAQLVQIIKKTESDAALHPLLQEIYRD

PPAR-γ = PPAR-γ agonist transactivation, statements made jointly for all species; type: cell-based, human, mouse, rat

## Cc1ccc(C)c(OCCCC(C)(C)C(=O)O)c1 [Gemfibrozil]
PPAR-α
  IC50/EC50 [Literature]: 193 µM

## COc1ccc(OC(=O)N(CC(=O)O)Cc2ccc(OCCc3nc(-c4ccccc4)oc3C)cc2)cc1 [Muraglitazar]
Human PPAR-γ
  agonist activity (in words): agonist activity
Human PPAR-γ; maximal
  activation: 16 fold
Rat PPAR-α
  agonist activity (in words): not against mouse and rat PPAR-α
Mouse PPAR-α
  agonist activity (in words): not against mouse and rat PPAR-α
Human PPAR-α
  maximal activation: 19 fold
Human PPAR-α; gemcabene up to 300 μM
  agonist activity (in words): agonist activity

## CN(CCOc1ccc(CC2SC(=O)NC2=O)cc1)c1ccccn1 (centres unmarked) [Rosiglitazone]
PPAR-γ
  Comments / agonist activity in words: strong activation; also recorded: potent agonist activity
